Source: patent publication US20230051263A1, “DEVICE FOR RAPID AND QU[…] OF DRUGS OF ABUSE IN SWEAT” (THE REGENTS OF THE UNIVERSITY OF MICHIGAN, priority 2020, published 2023)

What was measured:
Assay type in all cases: binding
[1] = test system: methadone antibody; test: Cross-reactivity of methadone sensor (capillary competitive chemiluminescent ELISA); settings: target analyte methadone; challenging analyte in sweat 1.6-10,000 ng/mL vs methadone-HRP 2000x; IC50 ratio Eq. (1)
Excerpt: (§1) In order to develop a sensor array that can quantify the presence of multiple analytes simultaneously, it is important to examine their cross-reactivity. Using the methadone as an example, methadone was the target analyte and channels of the capillary sensor were first coated with methadone antibody. After blocking, serial concentrations of the challenging analytes, METH, amphetamine, or THC, were individually mixed with methadone-HRP and withdrawn into the capillaries. The challenging analyte molecules (e.g., METH) competed with methadone-HRP for the methadone antibody coated on the capillary surface. Cross-reactivity is calculated as follows: […]
(§2) In order to perform multiplexed detection of drugs in sweat, first the cross-reactivity of the capillary-based sensors is examined. The capillary coated with the antibody intended for detecting one particular drug (i.e., target analyte) is challenged with various concentrations of the other three drugs (i.e., challenging analytes). Here, the concentrations of 10,000 ng/mL, 5,000 ng/mL, 400 ng/mL, 80 ng/mL, and 1.6 ng/mL for the challenging analytes in sweat are used. […] One exception is the 3.1% cross-reactivity of METH sensor to amphetamine, which is due to the structural similarities between METH and amphetamine.
(§3) The final concentration of competing drug conjugates was 2000×, 4000×, 15000×, and 4000× for methadone-HRP, METH-HRP, amphetamine-HRP, and THC-HRP, respectively, in corresponding sensors.

[2] = test system: amphetamine antibody; test: Cross-reactivity of amphetamine sensor (capillary competitive chemiluminescent ELISA); settings: target analyte amphetamine; challenging analyte in sweat 1.6-10,000 ng/mL vs amphetamine-HRP 15000x; IC50 ratio Eq. (1)
Excerpt: as §1, §2, §3

[3] = test system: tetrahydrocannabinol antibody; test: Cross-reactivity of THC sensor (capillary competitive chemiluminescent ELISA); settings: target analyte THC; challenging analyte in sweat 1.6-10,000 ng/mL vs THC-HRP 4000x; IC50 ratio Eq. (1)
Excerpt: as §1, §2, §3

[4] = test system: corresponding antibody coated on capillary inner surface; test: Detection of individual drugs in artificial sweat, inhibition curves (capillary competitive chemiluminescent ELISA); settings: y = a + b/(1+(x/x0)^p), x in ng/mL; used as calibration curve
[5] = test system: methamphetamine antibody; test: Cross-reactivity of METH sensor (capillary competitive chemiluminescent ELISA); settings: target analyte METH, challenging analyte in sweat 1.6-10,000 ng/mL vs METH-HRP 4000x, IC50 ratio Eq. (1)
Excerpt: as §1, §2, §3

SMILES	Cross-reactivity (100%) [1] [%]	Cross-reactivity (100%) [2] [%]	Cross-reactivity (100%) [3] [%]	midpoint parameter of logistic fit of inhibition curve B/B0 (%) [4] [ng/mL]	Cross-reactivity (100%) [5] [%]	Cross-reactivity (100%) ([5]; listed as amphetamine) [%]
CN[C@@H](C)Cc1ccccc1 [METH, methamphetamine]	<0.001	0.07	<0.4	7.63	–	–
CCCCCc1cc(O)c2c(c1)OC(C)(C)[C@@H]1CCC(C)=C[C@@H]21 [THC, tetrahydrocannabinol]	<0.001	<0.02	–	5.95	<0.04	–
CCC(=O)C(CC(C)N(C)C)(c1ccccc1)c1ccccc1 (stereo not shown) [Methadone, methadone]	–	<0.02	<0.4	–	<0.04	–
CC(N)Cc1ccccc1 (stereo not shown) [Amphetamine, amphetamine]	<0.001	–	<0.4	1473.04	3.1	3.1
